Measurements published in patent US20160145223A1, “Bicyclyl-Substituted Isothiazoline Compounds” (BASF SE, priority 2013, published 2016).

Tests used:
Type in all cases: in vivo
[1] = tested on: Green Peach Aphid (Myzus persicae); experiment: Green peach aphid artificial diet test, systemic (B.2); details: 72 h, adult aphids on treated artificial diet, 3 days, in comparison with untreated controls
Description: For evaluating control of green peach aphid (Myzus persicae) through systemic means the test unit consisted of 96-well-microtiter plates containing liquid artificial diet under an artificial membrane.
The compounds were formulated using a solution containing 75% v/v water and 25% v/v DMSO. Different concentrations of formulated compounds were pipetted into the aphid diet, using a custom built pipetter, at two replications.
After application, 5-8 adult aphids were placed on the artificial membrane inside the microtiter plate wells. The aphids were then allowed to suck on the treated aphid diet and incubated at about 23±1° C. and about 50±5% relative humidity for 3 days. Aphid mortality and fecundity was then visually assessed.

[2] = tested on: Mediterranean Fruitfly (Ceratitis capitata); experiment: Mediterranean fruitfly insect diet test (B.6); details: 120 h, egg and larval mortality, 5 days, in comparison with untreated controls
Method: For evaluating control of Mediterranean fruitfly (Ceratitis capitata) the test unit consisted of microtiter plates containing an insect diet and 50-80 C. capitata eggs. The compounds were formulated using a solution containing 75% v/v water and 25% v/v DMSO. Different concentrations of formulated compounds were sprayed onto the insect diet at 5 μl, using a custom built micro atomizer, at two replications.
(§1) After application, microtiter plates were incubated at about 28±1° C. and about 80±5% relative humidity for 5 days. Egg and larval mortality was then visually assessed.

[3] = tested on: Vetch Aphid (Megoura viciae); experiment: Vetch aphid broad bean leaf disk test (B.3); details: foliar, 120 h, adult aphids on sprayed leaf disks, 5 days, in comparison with untreated controls
Method: For evaluating control of vetch aphid (Megoura viciae) through contact or systemic means the test unit consisted of 24-well-microtiter plates containing broad bean leaf disks.
The compounds were formulated using a solution containing 75% v/v water and 25% v/v DMSO. Different concentrations of formulated compounds were sprayed onto the leaf disks at 2.5 μl, using a custom built micro atomizer, at two replications.
After application, the leaf disks were air-dried and 5-8 adult aphids placed on the leaf disks inside the microtiter plate wells. The aphids were then allowed to suck on the treated leaf disks and incubated at about 23±1° C. and about 50±5% relative humidity for 5 days. Aphid mortality and fecundity was then visually assessed.

[4] = tested on: Tobacco Budworm (Heliothis virescens); experiment: Tobacco budworm insect diet test (B.4); details: 120 h, egg and larval mortality, 5 days, in comparison with untreated controls
Method: For evaluating control of tobacco budworm (Heliothis virescens) the test unit consisted of 96-well-microtiter plates containing an insect diet and 15-25 H. virescens eggs.
The compounds were formulated using a solution containing 75% v/v water and 25% v/v DMSO. Different concentrations of formulated compounds were sprayed onto the insect diet at 10 μl, using a custom built micro atomizer, at two replications.
as §1

[5] = tested on: Boll Weevil (Anthonomus grandis); experiment: Boll weevil insect diet test (B.5); details: 120 h, egg and larval mortality, 5 days, in comparison with untreated controls
Method: For evaluating control of boll weevil (Anthonomus grandis) the test unit consisted of 96-well-microtiter plates containing an insect diet and 5-10 A. grandis eggs.
The compounds were formulated using a solution containing 75% v/v water and 25% v/v DMSO. Different concentrations of formulated compounds were sprayed onto the insect diet at 5 μl, using a custom built micro atomizer, at two replications.
After application, microtiter plates were incubated at about 25±1° C. and about 75±5% relative humidity for 5 days. Egg and larval mortality was then visually assessed.

[6] = tested on: Diamond Back Moth (Plutella xylostella); experiment: Diamond back moth leaf-dip test (B.1); details: 3rd instar larvae on dipped cabbage leaves, 72 hours after treatment, in comparison with untreated controls
Method: The active compound was dissolved at the desired concentration in a mixture of 1:1 (vol:vol) distilled water:aceteone. Surfactant (Kinetic HV) was added at a rate of 0.01% (vol/vol). The test solution was prepared at the day of use.
Leaves of cabbage were dipped in test solution and air-dried. Treated leaves were placed in petri dishes lined with moist filter paper and inoculated with ten 3rd instar larvae. Mortality was recorded 72 hours after treatment. Feeding damages were also recorded using a scale of 0-100%.

[7] = tested on: Rice green leafhopper (Nephotettix virescens); experiment: Rice green leafhopper rice seedling spray test (B.8); details: adults on sprayed rice seedlings, after 72 hours, in comparison with untreated controls
Method: Rice seedlings were cleaned and washed 24 hours before spraying. The active compounds were formulated in 1:1 acetone:water (vol:vol), and 0.01% vol/vol surfactant (Kinetic HV) was added. Potted rice seedlings were sprayed with 5-6 ml test solution, air dried, covered with Mylar cages cages and inoculated with 10 adults. Treated rice plants were kept at about 28-29° C. and relative humidity of about 50-60%. Percent mortality was recorded after 72 hours.

[8] = tested on: Red Spider Mite (Tetranychus kanzawai); experiment: Red spider mite cowpea spray test (B.9); details: mites on sprayed cowpea beans, 72 hours after treatment, in comparison with untreated controls
Method: The active compound was dissolved at the desired concentration in a mixture of 1:1 (vol:vol) distilled water:acetone. Add surfactant (Kinetic HV) was added at a rate of 0.01% (vol/vol). The test solution was prepared at the day of use.
Potted cowpea beans of 4-5 days of age were cleaned with tap water and sprayed with 1-2 ml of the test solution using air driven hand atomizer. The treated plants were allowed to air dry and afterwards inoculated with 30 or more mites by clipping a cassava leaf section from rearing population. Treated plants were placed inside a holding room at about 25-27° C. and about 50-60% relative humidity. Percent mortality was assessed 72 hours after treatment.

[9] = tested on: Orchid Thrips (Dichromothrips corbetti); experiment: Orchid thrips floral-immersion test (B.7); details: adult thrips on dipped orchid petals, 72 hours after treatment, in comparison with untreated controls
Method: Dichromothrips corbetti adults used for bioassay were obtained from a colony maintained continuously under laboratory conditions. For testing purposes, the test compound is diluted in a 1:1 mixture of acetone:water (vol:vol), plus Kinetic HV at a rate of 0.01% v/v.
Thrips potency of each compound was evaluated by using a floral-immersion technique. All petals of individual, intact orchid flowers were dipped into treatment solution and allowed to dry in Petri dishes. Treated petals were placed into individual re-sealable plastic along with about 20 adult thrips. All test arenas were held under continuous light and a temperature of about 28° C. for duration of the assay. After 3 days, the numbers of live thrips were counted on each petal. The percent mortality was recorded 72 hours after treatment.

O=C(NCc1ncccn1)c1ccc(C2=NSC(c3cc(Cl)c(F)c(Cl)c3)(C(F)(F)F)C2)c2c1CCCC2 (centres unmarked) [Compound 2-6, 8-[5-(3,5-Dichloro-4-fluoro-phenyl)-5-(trifluoromethyl)-4H-isothiazol-3-yl]-N-(pyrimidin-2-ylmethyl)tetralin-5-carboxamide]
≥ 75%: mortality at 2500 ppm [1] | mortality at 2500 ppm [2] | mortality at 2500 ppm [3] | mortality at 2500 ppm [4] | mortality at 2500 ppm [5]

COC(=O)c1ccc(C2=NSC(c3cc(Cl)c(F)c(Cl)c3)(C(F)(F)F)C2)c2c1CCCC2 (centres unmarked) [Compound 2-1, Methyl 8-[5-(3,5-dichloro-4-fluoro-phenyl)-5-(trifluoromethyl)-4H-isothiazol-3-yl]tetralin-5-carboxylate]
≥ 75%: mortality at 2500 ppm [2] | mortality at 2500 ppm [4] | mortality at 2500 ppm [5]

O=C(O)c1ccc(C2=NSC(c3cc(Cl)c(F)c(Cl)c3)(C(F)(F)F)C2)c2c1CCC2 (centres unmarked) [Compound 1-1, 7-[5-(3,5-Dichloro-4-fluoro-phenyl)-5-(trifluoromethyl)-4H-isothiazol-3-yl]indane-4-carboxylic acid]
≥ 75%: mortality at 2500 ppm [1] | mortality at 2500 ppm [4] | mortality at 2500 ppm [5]

O=C(NCC(F)(F)F)c1ccc(C2=NSC(c3cc(Cl)c(F)c(Cl)c3)(C(F)(F)F)C2)c2c1CCC2 (centres unmarked) [Compound 1-7, 7-[5-(3,5-Dichloro-4-fluoro-phenyl)-5-(trifluoromethyl)-4H-isothiazol-3-yl]-N-(2,2,2-trifluoroethyl)indane-4-carboxamide]
≥ 75%: mortality at 2500 ppm [1] | mortality at 2500 ppm [2] | mortality at 500 ppm [6] | mortality at 2500 ppm [3] | mortality at 500 ppm [7] | mortality at 500 ppm [8] | mortality at 2500 ppm [4] | mortality at 2500 ppm [5] | mortality at 500 ppm [9]

O=C(O)c1ccc(C2=NSC(c3cc(Cl)c(F)c(Cl)c3)(C(F)(F)F)C2)c2c1CCCC2 (centres unmarked) [Compound 2-2, 8-[5-(3,5-Dichloro-4-fluoro-phenyl)-5-(trifluoromethyl)-4H-isothiazol-3-yl]tetralin-5-carboxylic acid]
≥ 75%: mortality at 2500 ppm [2] | mortality at 2500 ppm [4] | mortality at 2500 ppm [5]
